This is an account of results in US20250000874A1, “BACTERIAL METABOLITES AND THEIR USE IN REDUCING INFLAMMATION” (LOYOLA UNIVERSITY OF CHICAGO, priority 2023, published 2025).

One data set has as its system Mouse macrophages. The data set can be described thus: Metabolites on LPS-stimulated TNFα/IL-6 production, mouse macrophages. The class given is cell-based. To be noted: 10 or 50 μM, 16 hours pre-treatment, 200 ng/mL LPS 3 hours, ELISA. Here is the method: (§1) FIG. 5A-C. Bacteria metabolites (MQ, JE, and NC) reduce expression of pro-inflammatory cytokines. Mouse macrophages cells, (FIG. 5A, FIG. 5B) Human Corneal Epithelial Cells (FIG. 5C) or THP-1 macrophages (FIG. 5D) were pre-treated with either 10 μM (3.5 μg/mL), 50 μM (17 μg/mL) of JE, 10UM (4.9 μg/mL), 50 μM (24 μg/mL) of MQ or combination of both for 16 hours, followed by 200 ng/mL of LPS to Mouse macrophages/THP1 cells, and 100 ng/ml of Flagellum to HCECs for 3 hours. The supernatants were collected and TNFα, IL-6 concentration was measured by ELISA. *, P<0.05, **. P<0.01, ***, P<0.001.
(§2) Next, the metabolites were tested individually to assess their regulatory effects on mouse macrophages and human THP-1 macrophages. Similar to the bacterial <10 kD supernatant fraction, both JE and MQ inhibited LPS-stimulated macrophage production of TNFa and IL-6 (FIG. 5), indicating it suppresses TLR4 agonist-induced production of pro-inflammatory cytokines by macrophages.
(§3) Cell Culture: Multiple macrophage cell lines were used in these experiments. Primary murine BMDMs were differentiated through isolation and treatment with L929 conditioned medium. C57BL/6 macrophages and BMDMs were seeded in complete DMEM (10% FBS+1% Penicillin-Streptomycin) in 24-well plates at concentrations of 5×10^5 and 2.5×10^5, respectively. THP-1 cells were maintained and grown in complete RPMI-1640 medium. Cells were differentiated by stimulating with PMA (100 nM) for three hours at 37° C. with 5% CO-2 until adherent. They were then collected and plated at a density of 2.5×10^5 cells per well in 24-well plates with serum-free RPMI and incubated overnight.
On the technique in general: An ELISA detects its analyte on a solid surface through an enzyme-linked reagent.

Another data set concerns THP-1 macrophages. The data set can be described thus: Metabolites on LPS-stimulated TNFα/IL-6 production, THP-1 macrophages. The class given is cell-based, human. To be noted: for IL-6 expression (FIG. 6): 10 μM JE, 10 μM MQ, 50 μM NC or combinations, 16 hours, 200 ng/ml LPS three hours; for LPS-stimulated macrophage production of IL-6 / LPS-stimulated macrophage production of TNFa: 10 or 50 μM, 16 hours pre-treatment, 200 ng/mL LPS 3 hours, ELISA. The protocol:
as §1
FIG. 6. Bacteria metabolites (MQ, JE, and NC) reduce IL-6 expression. THP-1 macrophages were pre-treated with either 10 μM (3.5 μg/mL) of JE, 10 μM (4.9 μg/mL) of MQ or 50UM of NC or different combinations of all three for 16 hours, followed by 200 ng/ml of LPS for three hours. Supernatants were collected and IL-6 concentration was measured by ELISA. **. P<0.01.
as §2, §3

Data set [1] concerns NLRP3 inflammasome. The data set can be described thus: Metabolites on IL-1β production after LPS priming and ATP, murine macrophages. The class given is cell-based, mouse. Particulars: 10 or 50 μM 16 hours, 200 ng/ml LPS three hours, 5 mM ATP one hour. Here is the method:
(§4) FIG. 7A-7B. Bacteria metabolites (MQ and JE) reduce IL-1β expression. Murine macrophages, (FIG. 7A) or THP-1 macrophages (FIG. 7B) were pre-treated with either 10 μM (3.5 μg/mL), 50 μM (17 μg/mL) of JE, 10 μM (4.9 μg/mL), 50 μM (24 μg/mL) of MQ or combination of both for 16 hours. Macrophages were primed with 200 ng/ml of LPS for three hours, followed by inflammasome activation with 5 mM ATP for one hour. Supernatants were collected, IL-1B was measured by ELISA. ***, P<0.001
as §2

Data set [2] has as its system NLRP3 inflammasome. The data set can be described thus: Metabolites on IL-1β production after LPS priming and ATP, THP-1 macrophages. The class given is cell-based, human. To be noted: 10 or 50 μM 16 hours, 200 ng/ml LPS three hours, 5 mM ATP one hour. Here is the method:
as §4, §2

The test system of data set [3] is CACO-2 epithelium cells / B6 Macrophages. The data set can be described thus: CACO-2 trans-well system with macrophages in lower well, metabolites JE, MQ, NC. The class given is cell-based. To be noted: for TNFα production by cells in lower chamber: 50 μM in upper well overnight, 200 ng/ml LPS 3 hours; for ability to cross the tight junctions of epithelial cells: 50 μM in upper well on CACO-2 cells, overnight. The protocol: FIG. 8A-8B. The assessment of the permeability of the differentiated CACO-2 epithelium cells after the treatment of JE, MQ, and NC in trans-well system. (FIG. 8A) CACO-2 cells were seeded in the upper well, and B6 Macrophages were placed into the lower well. 50UM of JE, MQ, NC, or combination of all three was added to CACO-2 cells in the upper well. Samples and controls were incubated overnight at 37° C., 5% CO2, followed by the addition of 200 ng/ml LPS to the upper and lower wells for 3 hours (Left: lower chambers, right: upper chambers). Cell culture supernatants were collected and an ELISA was used to measure TNFα or IL-6 concentrations. (FIG. 8B) FitC-dextrans (4 KDa) were added into the upper chamber simultaneously as the sample tests were added. A high concentration of hydrochloric acid (HCl) as a control was added to the upper chamber to disrupt the tight junctions. FitC-dextran collected from the bottom chamber was measured by a fluorescence spectrometer (excitation, 490 nm; emission, 520 nm). Data shown are representative mean±s.d. (***, p<0.001, **, p<0.01).
As stated before, commensal bacteria are non-invading and the metabolites must be able to cross the epithelium to mediate their functions and our earlier data confirmed <10 kD fraction pertained this ability. Therefore, we used the trans-well system to test if the identified metabolites were able to cross the epithelium. As we did previously, Caco-2 cells were culture for 2 weeks, to allow tight junctions to form. While the lower chamber contained C57BL/6 mouse BMDMs. We then measured the ability for NC, MQ and JE to cross the tight junctions without disrupting the integrity of the tight junctions. We did each separately and combined as well.

On to `CC(=O)O[C@@H]1CC[C@H]2[C@H]3CC[C@H]4CC(F)(F)CC[C@]4(C)[C@H]3CC[C@]12C` [JE, 3,3-Difluoro-5-alpha-androstan-17-beta-yl acetate], for which, in the data set with Mouse macrophages, the “LPS-stimulated macrophage production of IL-6” value is recorded as “inhibited” and the “LPS-stimulated macrophage production of TNFa” value was “inhibited”. Besides, in the data set with THP-1 macrophages, the “IL-6 expression (FIG. 6)” value is on record as “reduce”, the “LPS-stimulated macrophage production of IL-6” value is listed as “inhibited” and the “LPS-stimulated macrophage production of TNFa” value is on record as “inhibited”. For the same compound, in the data set on NLRP3 inflammasome [1], the “IL-β production stimulated by LPS and ATP” value (“IL-β production stimulated” for short) is recorded as “inhibited”. Also, in the data set on NLRP3 inflammasome [2], the “IL-β production stimulated” value was “inhibited”. The “TNFα production by cells in lower chamber” value in data set [3] was “suppress”.

Turning to Prednicarbate [MQ], in the data set on Mouse macrophages, the “LPS-stimulated macrophage production of IL-6” value is “inhibited” and the “LPS-stimulated macrophage production of TNFa” value is recorded as “inhibited”. Also, in the data set with THP-1 macrophages, the “IL-6 expression (FIG. 6)” value is “reduce”, the “LPS-stimulated macrophage production of IL-6” value is “inhibited” and the “LPS-stimulated macrophage production of TNFa” value is given as “inhibited”. In addition, in the data set with NLRP3 inflammasome [1], the “IL-β production stimulated” value is “inhibited”. Also, the “IL-β production stimulated” value in the data set on NLRP3 inflammasome [2] is “inhibited”. In data set [3], the “ability to cross the tight junctions of epithelial cells” value is reported as “can pass through” and the “TNFα production by cells in lower chamber” value is given as “suppress”.

In the case of `CCCCCCCCCCCCCCCC(=O)N[C@@H](C(=O)O)[C@H](C)O` [NC, N-Palmitoyl-D-Threonine], the “IL-6 expression (FIG. 6)” value with THP-1 macrophages is listed as “reduce”. Also, in data set [3], the “ability to cross the tight junctions of epithelial cells” value is recorded as “can pass through” and the “TNFα production by cells in lower chamber” value is listed as “suppress”.
